Read-outs that look alike come from different tables or passages of the source.
How the values were obtained:
[1] = tested on: human progesterone receptor altered at the Tau-1 location; assay: Co-transfection assay in CV-1 cells, progesterone receptor altered at Tau-1, antagonist activity; assay type: cell-based
Outline: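 CV-1 cells co-transfected with RSV-LTR-driven human PR (altered at Tau-1) and a hormone-responsive luciferase reporter; antagonism measured against a fixed agonist concentration. Luciferase in cell extracts read, triplicate points, potency from concentration-response; […].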

[2] = molecular target: T1, human progesterone receptor (Homo sapiens, UniProt P06401); assay: Displacement of 3H-R5020 from progesterone receptor; conditions: FIG. 7c
T1 sequence (P06401 1-933): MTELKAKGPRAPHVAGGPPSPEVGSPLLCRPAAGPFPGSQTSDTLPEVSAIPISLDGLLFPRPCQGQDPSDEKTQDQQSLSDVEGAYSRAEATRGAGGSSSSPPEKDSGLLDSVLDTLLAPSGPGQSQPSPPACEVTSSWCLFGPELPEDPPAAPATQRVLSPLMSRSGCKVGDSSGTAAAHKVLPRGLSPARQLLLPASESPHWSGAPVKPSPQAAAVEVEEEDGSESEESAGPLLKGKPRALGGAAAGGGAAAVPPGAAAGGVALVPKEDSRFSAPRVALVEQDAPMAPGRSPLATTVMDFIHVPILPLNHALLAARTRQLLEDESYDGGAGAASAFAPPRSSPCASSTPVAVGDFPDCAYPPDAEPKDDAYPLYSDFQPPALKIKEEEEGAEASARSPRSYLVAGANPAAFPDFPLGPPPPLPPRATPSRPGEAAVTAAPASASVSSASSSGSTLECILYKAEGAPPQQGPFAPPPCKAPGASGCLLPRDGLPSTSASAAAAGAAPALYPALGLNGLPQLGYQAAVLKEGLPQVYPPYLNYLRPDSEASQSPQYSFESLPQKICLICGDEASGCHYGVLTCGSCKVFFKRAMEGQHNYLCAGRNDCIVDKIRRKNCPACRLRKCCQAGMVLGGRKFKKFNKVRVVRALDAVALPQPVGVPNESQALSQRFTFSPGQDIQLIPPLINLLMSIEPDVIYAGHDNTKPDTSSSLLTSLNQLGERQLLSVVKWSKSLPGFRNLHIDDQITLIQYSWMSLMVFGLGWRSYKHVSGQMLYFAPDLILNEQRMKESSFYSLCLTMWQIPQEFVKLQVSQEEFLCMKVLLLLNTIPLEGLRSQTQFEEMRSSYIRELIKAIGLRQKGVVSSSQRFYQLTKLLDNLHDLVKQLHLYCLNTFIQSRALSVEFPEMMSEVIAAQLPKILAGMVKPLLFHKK

[3] = molecular target: T1, human progesterone receptor; assay: Co-transfection (cis-trans) assay in CV-1 cells, agonist and antagonist mode; assay type: cell-based; set-up: expressed in transfected cells; host or cells: CV-1 cells (calcium phosphate transfection), whole cell extract; conditions: antagonist mode with 10^-8 M progesterone
Text: This assay is described in further detail in U.S. Pat. Nos. 4,981,784 and 5,071,773, which are incorporated herein by reference. The co-transfection assay provides a method for identifying functional ligands (either agonists which mimic, or antagonists which inhibit, the effect of hormones) for ligand-responsive receptor proteins.
The co-transfection assay provides a mechanism to evaluate ability of a compound to function as an agonist or antagonist of the activity modulated by an intracellular receptor. The co-transfection assay mimics an in vivo system in the laboratory. In the co-transfection assay, a cloned gene for an intracellular receptor is introduced by transfection (a procedure to induce cells to take up foreign genes) into a background cell substantially devoid of endogenous intracellular receptors. This introduced gene directs the recipient cells to make the intracellular receptor protein. A second gene is also introduced (co-transfected) into the same cells in conjunction with the intracellular receptor gene. This second gene functions as a reporter for the transcription-modulating activity of the target intracellular receptor. The reporter acts as a surrogate for the products normally expressed by a gene under control of the target receptor and its natural hormone.
A preferred reporter gene is one which expresses the firefly enzyme luciferase. The co-transfection assay can detect small molecule agonists or antagonists of target intracellular receptors. Exposing the cells to an agonist ligand increases reporter activity in the transfected cells that can be conveniently measured, reflecting ligand-dependent, intracellular receptor-mediated increases in reporter transcription. To detect antagonists, the co-transfection assay is carried out in the presence of a constant concentration of an agonist known to induce a defined reporter signal. Increasing concentrations of a test antagonist will decrease the reporter signal. The co-transfection assay is therefore useful to detect both agonists and antagonists of specific intracellular receptors. It determines not only whether a compound interacts with a particular intracellular receptor, but also whether this interaction mimics (agonizes) or blocks (antagonizes) the effects of the natural regulatory molecules on target gene expression.
Co-transfected cells are exposed to a medium to which is added the potential ligand that is being evaluated. If the candidate ligand diffuses into the cell and binds to the receptor and the resulting complex functions as an agonist, it binds to the co-transfected reporter gene and initiates transcription. When that gene is one that expresses, for example, luciferase, luciferase is produced which catalyzes a light-emitting reaction with its substrate luciferin. Thus, after cell lysis and the introduction of luciferin, the amount of light produced relative to the concentration of candidate ligand used in the assay provides a measure of the potency and efficacy of the compound tested. Antagonist activity is evaluated by adding the candidate ligand and a known agonist to the co-transfected cells.
The receptor cDNA was introduced in a mammalian expression vector under the control of the Rous Sarcoma virus LTR. […] A reporter vector was also transfected, containing a firefly luciferase gene under the control of the hormone-responsive promoter. […] The level of luciferase activity was then measured in cell extracts. Light emission is directly proportional to the effectiveness of the hormone-receptor complex in activating gene expression.
A total of three replicates per concentration point were tested for each compound, and the EC50 was calculated for each positive response. Both agonist and antagonist activity for each test compound was determined in parallel.

[4] = molecular target: T1, human progesterone receptor; assay: Progesterone receptor binding (displacement of 3H-progesterone, whole cell extract of transfected CV-1 cells); set-up: expressed in transfected cells; host or cells: CV-1 cells (calcium phosphate transfection), whole cell extract; conditions: for Displacement of 3H-progesterone from its ligand binding site: 5 nM tritiated progesterone, 0-2.5×10^-5 M compound, 4° C., 24 hours

SMILES | IC50 ([1]; read-out: Potency (IC50), CV-1 cells, concentration required to reduce the maximal response by 50%) [nM] | Competition with 3H-R5020 [2] | Progesterone receptor agonist/antagonist activity [3] | Displacement of 3H-progesterone from its ligand binding site [4] | Efficacy (% maximal response relative to RU-486), CV-1 cells ([1]; antagonist activity, relative to RU-486) [%] | IC50 ([1]; concentration required to reduce the maximal response by 50%, read-out: Potency (IC50), CV-1 cells) [nM] | Progesterone receptor agonist/antagonist activity ([3]; listed as 3R diastereomer of cyclocymopol monomethyl ether) | Progesterone receptor agonist/antagonist activity ([3]; listed as SO-9) | Kd [4] [nM] | Apparent Bmax of 3H-progesterone ([4]; in the presence of compound, FIG. 8)
CC#C[C@]1(O)CC[C@H]2[C@@H]3CCC4=CC(=O)CCC4=C3[C@@H](c3ccc(N(C)C)cc3)C[C@@]21C [RU-486, reference compound] | 0.1 | competitive antagonist of R5020 | – | – | – | – | – | – | – | –
C=C1CC[C@@H](Br)C(C)(C)[C@@H]1Cc1cc(OC)c(Br)cc1OC(C)=O [SO-52] | – | – | progesterone receptor antagonist activity | displaced ^3 H-progesterone from its ligand binding site in a concentration-dependent manner | – | – | – | – | – | –
C=C1CC[C@@H](Br)C(C)(C)[C@@H]1Cc1cc(OC)c(Br)cc1O [SO-53, (3R)-cyclocymopol monomethyl ether] | – | did not compete for this binding site | progesterone receptor antagonist activity | displaced ^3 H-progesterone from its ligand binding site in a concentration-dependent manner | 85 | 965 | progesterone receptor antagonist activity | progesterone receptor antagonist activity | 450 | significantly increased the apparent Bmax

Source: patent publication US5808139A (Ligand Pharmaceuticals Incorporated, priority 1994, dated 1998)
